In the oligonucleotide strings, read from the 5' end, every base follows the letter of its sugar. An asterisk marks phosphorothioate; unmarked linkages are phosphodiester. Other units and linkages are bracketed, terminal groups are in braces. A string of capitals states the bases alone. e = 2'-O-(2-methoxyethyl) (MOE); [5mC] = 5-methylcytosine; d = 2'-deoxy (DNA)
Legend:
PEPCK-c = PEPCK-c mRNA expression in HepG2 cells; format: cell-based, human; details: for PEPCKc mRNA expression: Experiment 2, insulin treated: HepG2 cells transfected with oligomeric compound, 1 nM insulin for four hours, UTC + 1 nM insulin = 100; for PEPCKc mRNA: four hours, UTC = 100
IL-12 mRNA = IL-12 mRNA in LPS-activated primary murine macrophages; format: cell-based, mouse; details: for IL-12 mRNA expression, % UTC: LPS, average of 3 treatments; for IL-12 mRNA expression, −IFN % UTC: 300 nM oligomeric compound and LPS, no IFN-gamma pretreatment, single experiment; for IL-12 mRNA expression, −IFN % UTC / IL-12 mRNA expression, +IFN % UTC: normalized to LPS-treated cells without oligomeric compound; for IL-12 mRNA expression, +IFN % UTC: 300 nM oligomeric compound, stimulation with IFN-gamma and LPS, average of 2 experiments
[1] = HepG2 cells, Experiment 1, basal (no insulin)
[2] = Experiment 1, basal (no insulin), HepG2, 100 nM oligomeric compound
[3] = Experiment 2, 1 nM insulin treated, HepG2, 100 nM oligomeric compound

327918 (antisense e[5mC]*eT*eA*eG*eT*eA*e[5mC]*eA*eT*e[5mC]*eA*eT*e[5mC]*eT*eA*eT*eA*e[5mC]*eT*eG*eT*eA) [compound 327918]
PEPCKc mRNA expression (PEPCK-c): 107 | PEPCKc mRNA (PEPCK-c; [1]): 81

341804 (antisense ATCTGCACTGTCAGCACTTT; all 2'-MOE, all phosphorothioate, methylation of C not given here) [compound 341804]
PEPCKc mRNA (PEPCK-c; [1]): 44

327897 (antisense eA*e[5mC]*eA*eG*eG*e[5mC]*e[5mC]*eG*eG*eG*eA*e[5mC]*eA*eA*eG*eT*eG*e[5mC]*eA*eA*eT*eA) [compound 327897]
PEPCKc mRNA expression (PEPCK-c): 78 | PEPCKc mRNA (PEPCK-c; [1]): 72

328115 (antisense eA*eG*eA*eA*eG*eG*eT*eG*eG*eG*eG*eA*eG*e[5mC]*eA*eG*e[5mC]*eG*eT*e[5mC]*eA) [compound 328115]
PEPCKc mRNA expression (PEPCK-c): 59

327916 (antisense eT*eG*eG*e[5mC]*eA*eT*eT*e[5mC]*eA*e[5mC]*e[5mC]*eG*e[5mC]*eG*eT*eG*e[5mC]*e[5mC]*eT*eT*eA*eA) [compound 327916]
PEPCKc mRNA expression (PEPCK-c): 88 | PEPCKc mRNA (PEPCK-c; [1]): 88

341805 (antisense ACCCTTATCAGTTCTCCGTCCA; all 2'-MOE, all phosphorothioate, methylation of C not given here) [compound 341805]
PEPCKc mRNA (PEPCK-c; [1]): 40

328114 (antisense eA*eA*eT*e[5mC]*eT*e[5mC]*eA*eT*eT*eT*eT*e[5mC]*eA*eT*eA*e[5mC]*eT*eT*eG*e[5mC]*eA) [compound 328114]
PEPCKc mRNA expression (PEPCK-c): 41

328691 (e[5mC]*e[5mC]*e[5mC]*e[5mC]*eA*dT*d[5mC]*dT*dT*dA*dG*d[5mC]*dA*dT*d[5mC]*eT*eA*eA*eG*eG) [compound 328691]
PEPCK-c (% UTC) (PEPCK-c; Experiment 3, basal (no insulin), HepG2 cells, 48 hours post-transfection): 108 % UTC | PEPCK-c (% UTC) (PEPCK-c; Experiment 4, insulin-sensitization: HepG2 cells treated with 1 nM insulin for four hours, 48 h post-transfection, mRNA by real-time PCR): 97 % UTC

327921 (antisense e[5mC]*eT*eT*e[5mC]*e[5mC]*eA*eG*eT*e[5mC]*eG*eG*eG*eG*eA*eT*eG*eT*eT*eT*eA*e[5mC]*eA) [compound 327921]
IL-12 mRNA expression, % UTC (IL-12 mRNA; 75 nM, +IFN): 14 % UTC | IL-12 mRNA expression, % UTC (IL-12 mRNA; 75 nM, −IFN): 109 % UTC | IL-12 mRNA expression, % UTC (IL-12 mRNA; 150 nM, +IFN): 7 % UTC | IL-12 mRNA expression, % UTC (IL-12 mRNA; 150 nM, −IFN): 88 % UTC | IL-12 mRNA expression, −IFN % UTC (IL-12 mRNA): 325 % UTC | IL-12 mRNA expression, +IFN % UTC (IL-12 mRNA): 24 % UTC | IL-12 mRNA expression, % UTC (IL-12 mRNA; 300 nM, +IFN): 5 % UTC | IL-12 mRNA expression, % UTC (IL-12 mRNA; 300 nM, −IFN): 67 % UTC | IL-12 mRNA expression, % UTC (IL-12 mRNA; 600 nM, +IFN): 5 % UTC | IL-12 mRNA expression, % UTC (IL-12 mRNA; 600 nM, −IFN): 53 % UTC

327922 (antisense eT*e[5mC]*eA*eG*eT*eT*eT*eT*eG*e[5mC]*eA*eT*eG*eG*eA*eT*eT*eT*eG*e[5mC]*eA*e[5mC]*eA) [compound 327922]
PEPCK-c (% UTC) (PEPCK-c; [2]): 77 % UTC | PEPCK-c (% UTC) (PEPCK-c; [3]): 76 % UTC

327885 (antisense eA*e[5mC]*eT*eA*e[5mC]*e[5mC]*eT*eG*e[5mC]*eA*e[5mC]*eT*eG*eT*eA*eA*eG*e[5mC]*eA*e[5mC]*eT*eT*eT*eG) [compound 327885]
PEPCKc mRNA (PEPCK-c; [1]): 73

327895 (antisense eA*e[5mC]*eA*eA*eA*e[5mC]*eA*e[5mC]*e[5mC]*eA*eT*eT*eG*eT*e[5mC]*eA*e[5mC]*eA*e[5mC]*eT*e[5mC]*e[5mC]*eA) [compound 327895]
PEPCKc mRNA (PEPCK-c; [1]): 71

328117 (antisense eT*e[5mC]*e[5mC]*eA*e[5mC]*eA*eA*eA*eG*e[5mC]*eT*eG*eA*eA*e[5mC]*eA*eT*eG*eT*e[5mC]*eT) [compound 328117]
IL-12 mRNA expression, −IFN % UTC (IL-12 mRNA): 162 % UTC | IL-12 mRNA expression, +IFN % UTC (IL-12 mRNA): 72 % UTC

340927 (antisense eT*eG*eA*eG*e[5mC]*dT*dA*d[5mC]*dA*dG*dT*dG*d[5mC]*dT*dT*e[5mC]*eA*eT*e[5mC]*eT*e[5mC]*eA) [compound 340927]
PEPCK-c (% UTC) (PEPCK-c; [2]): 87 % UTC | PEPCK-c (% UTC) (PEPCK-c; [3]): 103 % UTC

341803 (antisense CCACACACTTCCTTACATTCCA; all 2'-MOE, all phosphorothioate, methylation of C not given here) [compound 341803]
PEPCKc mRNA (PEPCK-c; [1]): 110

327900 (antisense e[5mC]*eT*eG*e[5mC]*e[5mC]*eT*eG*eT*e[5mC]*eT*eG*eT*eG*e[5mC]*e[5mC]*eT*eG*e[5mC]*eT*eG*eT) [compound 327900]
PEPCKc mRNA (PEPCK-c; [1]): 88

327878 (antisense e[5mC]*eT*eA*eG*eT*eG*eG*eT*e[5mC]*e[5mC]*eT*eA*eA*eA*e[5mC]*eA*eT*eT*eT*e[5mC]*eA*e[5mC]) [compound 327878]
PEPCK-c (% UTC) (PEPCK-c; [2]): 45 % UTC | PEPCK-c (% UTC) (PEPCK-c; [3]): 29 % UTC

328105 (antisense e[5mC]*e[5mC]*eT*e[5mC]*eA*eA*eT*eT*eA*eT*eT*eG*eG*eA*eA*eA*eT*e[5mC]*eA*e[5mC]*eA) [compound 328105]
IL-12 mRNA expression, −IFN % UTC (IL-12 mRNA): 108 % UTC | IL-12 mRNA expression, +IFN % UTC (IL-12 mRNA): 57 % UTC

327912 (antisense eA*eA*e[5mC]*eT*eA*eT*eA*e[5mC]*eA*eA*eT*e[5mC]*eT*eA*e[5mC]*eT*eA*e[5mC]*e[5mC]*eT*e[5mC]*eA) [compound 327912]
IL-12 mRNA expression, −IFN % UTC (IL-12 mRNA): 206 % UTC | IL-12 mRNA expression, +IFN % UTC (IL-12 mRNA): 39 % UTC

328129 (antisense eA*eG*e[5mC]*e[5mC]*eT*e[5mC]*e[5mC]*eT*eT*e[5mC]*eT*eT*e[5mC]*eT*e[5mC]*eG*eT*eA*e[5mC]*eT*eA) [compound 328129]
IL-12 mRNA expression, −IFN % UTC (IL-12 mRNA): 87 % UTC | IL-12 mRNA expression, +IFN % UTC (IL-12 mRNA): 10 % UTC

328137 (eG*eT*eA*eA*eG*e[5mC]*eG*e[5mC]*eA*eG*e[5mC]*eT*e[5mC]*e[5mC]*eA*e[5mC]*eA*eG*eG*e[5mC]*eT; anti-miR) [compound 328137]
IL-12 mRNA expression, −IFN % UTC (IL-12 mRNA): 213 % UTC | IL-12 mRNA expression, +IFN % UTC (IL-12 mRNA): 12 % UTC

328110 (antisense eG*eA*eT*eA*eA*eA*eG*e[5mC]*e[5mC]*eA*eA*eT*eA*eA*eA*e[5mC]*eT*eG*eT*e[5mC]*eA) [compound 328110]
IL-12 mRNA expression, −IFN % UTC (IL-12 mRNA): 221 % UTC | IL-12 mRNA expression, +IFN % UTC (IL-12 mRNA): 8 % UTC

328138 (eG*eA*eG*e[5mC]*eT*eG*e[5mC]*eT*e[5mC]*eA*eG*e[5mC]*eT*eG*eG*e[5mC]*e[5mC]*eA*eT*e[5mC]*eA; anti-miR) [compound 328138]
IL-12 mRNA expression, −IFN % UTC (IL-12 mRNA): 277 % UTC | IL-12 mRNA expression, +IFN % UTC (IL-12 mRNA): 31 % UTC

327928 (antisense eA*eA*e[5mC]*e[5mC]*eG*eA*eT*eT*eT*e[5mC]*eA*eG*eA*eT*eG*eG*eT*eG*e[5mC]*eT*eA*eG) [compound 327928]
IL-12 mRNA expression, −IFN % UTC (IL-12 mRNA): 201 % UTC | IL-12 mRNA expression, +IFN % UTC (IL-12 mRNA): 61 % UTC

327931 (antisense eA*eA*e[5mC]*e[5mC]*eA*eT*eA*e[5mC]*eA*eA*e[5mC]*e[5mC]*eT*eA*e[5mC]*eT*eA*e[5mC]*e[5mC]*eT*e[5mC]*eA) [compound 327931]
IL-12 mRNA expression, −IFN % UTC (IL-12 mRNA): 105 % UTC | IL-12 mRNA expression, +IFN % UTC (IL-12 mRNA): 48 % UTC

342673 (antisense eA*eG*eA*e[5mC]*eT*eA*eG*e[5mC]*eG*eG*eT*eA*eT*e[5mC]*eT*eT*eT*eA*eT*e[5mC]*e[5mC]*e[5mC]) [compound 342673]
IL-12 mRNA expression, −IFN % UTC (IL-12 mRNA): 91 % UTC

328133 (eT*eG*eA*eA*eG*eG*eT*eT*e[5mC]*eG*eG*eA*eG*eA*eT*eA*eG*eG*e[5mC]*eT*eA; anti-miR) [compound 328133]
IL-12 mRNA expression, −IFN % UTC (IL-12 mRNA): 165 % UTC | IL-12 mRNA expression, +IFN % UTC (IL-12 mRNA): 62 % UTC

327927 (antisense eT*eG*eT*eA*eA*eA*e[5mC]*e[5mC]*eA*eT*eG*eA*eT*eG*eT*eG*e[5mC]*eT*eG*e[5mC]*eT*eA) [compound 327927]
IL-12 mRNA expression, −IFN % UTC (IL-12 mRNA): 164 % UTC | IL-12 mRNA expression, +IFN % UTC (IL-12 mRNA): 33 % UTC

327956 (antisense e[5mC]*eA*e[5mC]*eA*eG*eT*eT*eG*e[5mC]*e[5mC]*eA*eG*e[5mC]*eT*eG*eA*eG*eA*eT*eT*eA) [compound 327956]
IL-12 mRNA expression, −IFN % UTC (IL-12 mRNA): 212 % UTC | IL-12 mRNA expression, +IFN % UTC (IL-12 mRNA): 59 % UTC

327917 (antisense eT*e[5mC]*eA*eA*e[5mC]*eA*eT*e[5mC]*eA*eG*eT*e[5mC]*eT*eG*eA*eT*eA*eA*eG*e[5mC]*eT*eA) [compound 327917]
IL-12 mRNA expression, −IFN % UTC (IL-12 mRNA): 225 % UTC | IL-12 mRNA expression, +IFN % UTC (IL-12 mRNA): 35 % UTC

327967 (antisense eA*e[5mC]*eT*eG*eT*eA*e[5mC]*eA*eA*eA*e[5mC]*eT*eA*e[5mC]*eT*eA*e[5mC]*e[5mC]*eT*e[5mC]*eA) [compound 327967]
IL-12 mRNA expression, −IFN % UTC (IL-12 mRNA): 203 % UTC | IL-12 mRNA expression, +IFN % UTC (IL-12 mRNA): 43 % UTC

328123 (antisense eT*eT*eA*e[5mC]*eA*eG*eG*eT*eG*e[5mC]*eT*eG*e[5mC]*eA*eA*e[5mC]*eT*eG*eG*eA*eA) [compound 328123]
IL-12 mRNA expression, −IFN % UTC (IL-12 mRNA): 176 % UTC | IL-12 mRNA expression, +IFN % UTC (IL-12 mRNA): 14 % UTC

Reference: US8178506B2, “Oligomeric compounds and compositions for use in modulation of small non-coding RNAs” (Regulus Therapeutics Inc., priority 2003, dated 2012)
